Values of other authors in patent publication EP2484728B1, “Ink composition, ink set, and image forming method” (Fujifilm Corporation, priority 2011, dated 2012).

Conditions: 25°C; Polymer Handbook values, otherwise calculated by the Fedors method

Row | Molecule | SP value
1 | CCCCC(O)CO (centres unmarked) [1,2-Hexanediol] | 24.1 (MPa)^1/2
2 | OCCOCCO [DEG, Diethylene glycol] | DEG (30.6) (MPa)^1/2
3 | CCCCOCCOCCO [Diethylene glycol monobutyl ether] | 21.5 (MPa)^1/2
4 | COCCOCCO [Diethylene glycol monomethyl ether] | 22.4 (MPa)^1/2
5 | COC(C)COC(C)CO (centres unmarked) [Dipropylene glycol monomethyl ether] | 21.3 (MPa)^1/2
6 | CC(O)COC(C)COC(C)COC(C)COC(C)COC(C)COC(C)CO (centres unmarked) [Heptapropylene glycol] | 21.2 (MPa)^1/2
7 | CCOCC(C)O (centres unmarked) [Propylene glycol monoethyl ether] | 22.3 (MPa)^1/2
8 | CCCCOCCOCCOCCO [Triethylene glycol monobutyl ether] | 21.1 (MPa)^1/2
9 | CCOCCOCCOCCO [Triethylene glycol monoethyl ether] | 21.7 (MPa)^1/2
10 | COCCOCCOCCO [Triethylene glycol monomethyl ether] | 22.1 (MPa)^1/2
11 | COC(C)COC(C)COC(C)CO (centres unmarked) [Tripropylene glycol monomethyl ether] | 20.4 (MPa)^1/2
12 | CC(O)COC(C)COC(C)CO (centres unmarked) [Tripropylene glycol] | 24.7 (MPa)^1/2
13 | OCC(O)CO [glycerin] | glycerin (33.5) (MPa)^1/2
14 | Decaoxyethylene heptaoxypropylene butyl ether | 18.8 (MPa)^1/2
15 | Decaoxyethylene triacontaoxypropylene butyl ether | 18.7 (MPa)^1/2
16 | Dioxyethylene dioxypropylene butyl ether | 20.1 (MPa)^1/2

Row | Molecule | SP value
17 | Dodecaoxyethylene dodecaoxypropylene butyl ether | 18.8 (MPa)^1/2
18 | POE (20) diglyceryl ether | 22.4 (MPa)^1/2
19 | POE (40) diglyceryl ether | 21.0 (MPa)^1/2
20 | POP (3) glycerylether | 26. 4 (MPa)^1/2
21 | POP (4) diglyceryl ether | 26.1 (MPa)^1/2
22 | POP (4) glyceryl ether | 24.9 (MPa)^1/2
23 | POP (5) glyceryl ether | 23.9 (MPa)^1/2
24 | POP (6) glyceryl ether | 23. 2 (MPa)^1/2
25 | POP (7) glyceryl ether | 22.6 (MPa)^1/2
26 | POP (8) glyceryl ether | 22.1 (MPa)^1/2
27 | POP (9) diglyceryl ether | 22.7 (MPa)^1/2
28 | POP (9) glyceryl ether | 21.7 (MPa)^1/2
29 | POP (10) glyceryl ether | 21.4 (MPa)^1/2
30 | POP (16) glyceryl ether | 20.2 (MPa)^1/2
31 | Pentacosaoxyethylene triacontaoxypropylene butyl ether | 18.8 (MPa)^1/2
32 | Pentaoxyethylene pentaoxypropylene butyl ether | 18.8 (MPa)^1/2
